Source: patent US20090298178A1, “GROWTH FACTORS FOR PRODUCTION OF DEFINITIVE ENDODERM” (priority 2008, published 2009)

Experiments:
[1] = test system: hES cells (CyT49; passage 35); experiment: Differentiation of hES cells to definitive endoderm with activin A plus Wnt3a or GSK3 inhibitors, real-time quantitative PCR at 48 hours (Example 4); type: cell-based, human; settings: with 100 ng/mL activin A; inhibitor at 10 or 100 nM; FIG. 6A-B
Method: Undifferentiated hES cells (CyT49; passage 35) were maintained substantially as described in Example 1 above. Ten hES cell culture plates were then differentiated in RPMI (Mediatech) supplemented with Glutamax, penicillin/streptomycin, and varying concentrations of defined FBS (HyClone). FBS concentrations were 0% for the first 24 h and 0.2% for the second 24 h. Additionally, 0.1% BSA (Invitrogen/Gibco) was added on the first day only. All plates received 100 ng/mL activin A for both days. […] Replicate samples were collected from each culture condition at 48 hours after differentiation commenced and analyzed for relative gene expression using real-time quantitative PCR.

[2] = test system: hES cells (CyT49; passage 41); experiment: Differentiation of hES cells to definitive endoderm (stage 1) with TGF-beta member growth factors, real-time quantitative PCR (Example 1); type: cell-based, human; settings: for effectiveness for induction of definitive endoderm differentiation derived from hES cells: compared with activin A; for fold induction of SOX17 gene expression as compared to undifferentiated hESCs / fold induction of FOXA2 gene expression as compared to undifferentiated hESCs: 100 ng/ml factor, 75 ng/mL Wnt3a on first day, day 2 of differentiation; for fold induction of SOX17 gene expression as compared to undifferentiated hESCs: FIG. 2C; for efficiency in generating definitive endoderm cell populations: sufficient amounts, compared to Activin A and activin B
From the text: Human embryonic stem (hES) cells were differentiated in vitro to definitive endoderm (stage 1) for about 2-4 days substantially as described in D'Amour et al. 2006 Nat Biotechnol 24(11):1392-401 and U.S. Patent Application Publication Number 2007/0154984, which are herein incorporated in their entireties. Briefly, undifferentiated human embryonic stem (hES) cells were maintained on mouse embryo fibroblast feeder layers (Millipore, formerly Chemicon or Specialty Media) or on human serum coated plates (Valley Biomedical) in DMEM/F12 (Mediatech) supplemented with 20% KnockOut serum replacement (Invitrogen/Gibco), 1 mM nonessential amino acids (Invitrogen/Gibco), Glutamax (Invitrogen/Gibco), penicillin/streptomycin (Invitrogen/ Gibco), 0.55 mM 2-mercaptoethanol (Invitrogen/Gibco) and 4 ng/ml to 20 ng/mL recombinant human FGF2 (R&D Systems). Low dosages of Activin A (10-25 ng/ml, R&D Systems) were added to the growth culture medium to help maintain undifferentiated growth. Cultures were either manually passaged, or enzymatically passaged using 5 ug/mL dispase (Invitrogen/Gibco), or passaged using Accutase (Innovative Cell Technologies #AT104) at 1:4-1:15 split ratios every 3-7 days. Before initiating differentiation, hES cells were given a brief wash in PBS+/+ (PBS+/+ refers to PBS containing both calcuim and magnesium) (Mediatech).
Four hES cell culture plates (CyT49; passage 41) were then differentiated in RPMI (Mediatech) supplemented with Glutamax, penicillin/streptomycin, and with either: i) 100 ng/mL activin A, ii) 100 ng/mL of activin B (R&D Systems), iii) 100 ng/mL of GDF8, or iv) 100 ng/mL of GDF11 (R&D Systems) and varying concentrations of defined FBS (HyClone). Additionally, 0.1% BSA (Invitrogen/Gibco) and 75 ng/mL Wnt3a (R&D Systems) were added on the first day (d0) of differentiation. FBS concentrations were 0% for the first 24 h and 0.2% for the second 24 h. Replicate samples were collected from each culture condition at 0, 24 and 48 hours after differentiation commenced and analyzed for relative gene expression using real-time quantitative PCR.

[3] = test system: hES cells (CyT49); experiment: Further differentiation of definitive endoderm to pancreatic endoderm and endocrine cells, real-time PCR at day 9 (Example 2); type: cell-based, human; settings: definitive endoderm produced with 100 ng/mL factor, compared with activin A, FIG. 3
Method: (§1) Human ES cell cultures were maintained and differentiated substantially as described above in Example 1, and further differentiated to foregut endoderm (stage 2) and then onto pancreatic endoderm and pancreatic endocrine cells (stages 3 and 4). After 48 hours of differentiation to definitive endoderm (stage 1) the cells were briefly washed in PBS+/+ and then further differentiated in RPMI supplemented with 0.2% FBS, Insulin-Transferrin-Selenium (1:1000), Glutamax, penicillin/streptomycin, and 25 ng/mL KGF (R&D Systems) for 3 days. On the first day of stage 2, the culture also received TGF-beta inhibitor No. 4 (3-(6-Methylpyridin-2-yl)-4-(4-quinolyl)-1-phenylthiocarbamoyl-1H-pyrazole) at 2.5 uM (EMD Bioscience). After three days in stage 2 the cells were then differentiated for one day in DMEM with B27 supplement (1:100) containing all-trans retinoic acid (RA) at 0.2 uM and KAAD-cyclopamine at 0.25 uM. Following the single day of retinoid exposure, the cells were cultured in DMEM with B27 (1:100) containing noggin at 40 ng/ml. At day 9 of total differentiation, replicate samples were collected from each culture condition and analyzed for relative gene expression using real-time quantitative PCR.

[4] = test system: hES cells (CyT49; passage 48); experiment: Further differentiation to pancreatic endoderm and endocrine cells, real-time PCR at 12 days (Example 3); type: cell-based, human; settings: 12 days of differentiation
Method: as §1
Such conditions are described in Example 2 above. In this example, however, the stage 4 noggin treatment lasted for 6 days and replicate samples were taken for real-time PCR analysis at a total of 12 days of differentiation as compared to 9 days of differentiation in Example 2. […] Similarly, the pancreatic endoderm or endocrine cells expressing endocrine markers NKX2-2 and INS were typically not detected in the non-activin A treated plates (FIG. 5C-D). Stated another way, the activin A treated plates were 1200-fold or more higher in expression of these markers than the non-Activin A treated plates.

[5] = test system: hES cells (CyT49; passage 48); experiment: Differentiation of hES cells with other TGF-beta family member proteins, real-time quantitative PCR (Example 3); type: cell-based, human; settings: for CDX2 induction level, fold higher expression over that observed with the activin A treatment: GDF3 500 ng/ml, TGF-beta3 100 ng/mL, FIG. 4C
Method: Undifferentiated human embryonic stem (hES) cells (CyT49; passage 48) were maintained substantially as described in Example 1 above. Seven hES cell culture plates were then differentiated in RPMI (Mediatech) supplemented with Glutamax, penicillin/streptomycin, and either: i) activin A (100 ng/ml), ii) TGF-beta1 (100 ng/ml), iii) TGF-beta3 (100 ng/mL), iv) TGF-beta2 (200 ng/ml), v) GDF3 (500 ng/ml), vi) GDF9 (4 ug/ml), or vii) GDF15 (2.5 ug/ml) and varying concentrations of defined FBS (HyClone). Additionally, 0.1% BSA (Invitrogen/Gibco) and 75 ng/mL Wnt3a (R&D Systems) were added on the first day (d0) of differentiation. FBS concentrations were 0% for the first 24 h and 0.2% for the second 24 h. Replicate samples were collected from each culture condition at 0, 24 and 48 hours after differentiation commenced and analyzed for relative gene expression using real-time quantitative PCR.

[6] = test system: hES cells; settings: McLean et al. Stem Cells 25:29-38 2007; cited from earlier work

## COc1ccc(CNC(=O)Nc2ncc([N+](=O)[O-])s2)cc1 [GSK3 inhibitor No. 8]
[1]
  differentiation of hES cells to definitive endoderm: Neither GSK3 inhibitor No. 9 (“BIO”) nor GSK3 inhibitor No. 8 (GVIII) at 10 or 100 nM resulted in substantial differentiation

## O=C1Nc2cc(Br)ccc2/C1=C1/Nc2ccccc2/C1=N\O [GSK3 inhibitor No. 9]
[1]
  differentiation of hES cells to definitive endoderm: Neither GSK3 inhibitor No. 9 (“BIO”) nor GSK3 inhibitor No. 8 (GVIII) at 10 or 100 nM resulted in substantial differentiation

## GDF8: TGF-beta family member, also referred to as myostatin
[2]; 100 ng/mL
  effectiveness for induction of definitive endoderm differentiation derived from hES cells: as effective as activin A
[2]
  fold induction of SOX17 gene expression as compared to undifferentiated hESCs: 1324 fold
  efficiency in generating definitive endoderm cell populations: more efficient compared to activin B
[2]; FIG. 2D
  fold induction of FOXA2 gene expression as compared to undifferentiated hESCs: 438 fold
[3]
  subsequent differentiation of definitive endoderm to pancreatic endoderm expressing PDX1 and PTF1A or endocrine cells expressing NKX2-2: as effective

## GDF11: TGF-beta family member with approximately 90% identity to myostatin
[2]; 100 ng/mL
  effectiveness for induction of definitive endoderm differentiation derived from hES cells: as effective as activin A
[2]
  fold induction of SOX17 gene expression as compared to undifferentiated hESCs: 1306 fold
  efficiency in generating definitive endoderm cell populations: more efficient compared to activin B
[2]; FIG. 2D
  fold induction of FOXA2 gene expression as compared to undifferentiated hESCs: 382 fold
[3]
  subsequent differentiation of definitive endoderm to pancreatic endoderm expressing PDX1 and PTF1A or endocrine cells expressing NKX2-2: as effective

## activin A: TGF-beta family growth factor used at 100 ng/mL to produce definitive endoderm
[4]; FIG. 5C-D
  expression of endocrine markers NKX2-2 and INS, fold higher than the non-Activin A treated plates: ≥ 1200 fold
[4]; FIGS. 5A-D
  production of pancreatic endoderm and endocrine cell types as indicated by induction of PDX1, PTF1A, NKX2-2 and INS gene expression: produced only in the activin A treatment condition
[4]; comparator GDF15, FIG. 5A
  PDX1 expression level, fold higher in the presence of activin A as compared to GDF15: 14,497 fold
[4]; comparator TGF-beta1, FIG. 5A
  PDX1 expression level, fold higher in the presence of activin A as compared to TGF-beta1: 1413 fold
[5]; activin A 100 ng/ml, other ligands 100 ng/ml to 4 ug/ml, 75 ng/mL Wnt3a on first day, FIG. 4A-B
  definitive endoderm production as indicated by induction of SOX17 and CER1 gene expression: definitive endoderm was produced only in the activin A treatment condition

## insulin: protein that binds to the insulin receptor and can induce signaling
[6]
  insulin concentration detrimental for the production of definitive endoderm cells from hES cells: ≥ 0.2 µg/mL

B1: GDF3: TGF-beta family member also known as Vg-related gene 2 (protein, UniProt Q9NR23 251-364, looked up)
Growth/differentiation factor …: AAIPVPKLSCKNLCHRHQLFINFRDLGWHKWIIAPKGFMANYCHGECPFSLTISLNSSNYAFMQALMHAVDPEIPQAVCIPTKLSPISMLYQDNNDNVILRHYEDMVVDECGCG
[5]
  CDX2 induction level, fold higher expression over that observed with the activin A treatment: 900 fold

B2: TGF-beta3: isoform of transforming growth factor beta (protein, UniProt P10600 301-412, looked up)
Transforming growth factor …: ALDTNYCFRNLEENCCVRPLYIDFRQDLGWKWVHEPKGYYANFCSGPCPYLRSADTTHSTVLGLYNTLNPEASASPCCVPQDLEPLTILYYVGRTPKVEQLSNMVVKSCKCS
[5]
  CDX2 induction level, fold higher expression over that observed with the activin A treatment: 2,667 fold

B3: activin B: TGF-beta family growth factor (R&D Systems) (protein, UniProt P09529 293-407, looked up)
Inhibin beta B chain: GLECDGRTNLCCRQQFFIDFRLIGWNDWIIAPTGYYGNYCEGSCPAYLAGVPGSASSFHTAVVNQYRMRGLNPGTVNSCCIPTKLSTMSMLYFDDEYNIVKRDVPNMIVEECGCA
[2]; 100 ng/mL, FIG. 2B, indicates mesoderm differentiation
  expression of ISL1 as compared to activin A treated cultures: higher expression
[2]; 100 ng/mL, FIG. 2D
  FOXA2 induction (in words): lower
[3]
  subsequent differentiation of definitive endoderm to pancreatic endoderm expressing PDX1 and PTF1A or endocrine cells expressing NKX2-2: less effective
